{"source": "patent US11883517B2", "about": "“External dermal composition and method for beautifying skin” (National Tsing Hua University, priority 2021, dated 2024)", "test_system": "EpiDerm™ SIT (EPI-200)", "assay": "Skin irritation test, OECD 439", "conditions": "test group 50 μM, positive control 5% solution, average of 3 repeats", "protocol": "In the present evaluation, the EpiDerm™ SIT (EPI-200) was used for skin irritation tests following the OECD 439 test guidelines.\nIn the skin irritation test, the double nitrosyl-iron complex at a concentration of 50 μM was used as the test group, Dulbecco's Phosphate-Buffered Saline (DPBS) was used as the negative control group, and 5% of sodium dodecyl sulfate (SDS) solution was used as a positive control group. The test was repeated 3 times, and the average value was used for evaluation."}
{"compound": "CCCCCCCCCCCCOS(=O)(=O)[O-].[Na+]", "note": "[sodium dodecyl sulfate (SDS), sodium dodecyl sulfate]", "values": [{"measurement": "tissue survival rate", "value": 15.11, "unit": "%"}]}
